Results: US20060188995A1, “Process, composition and kit for providing a stable whole blood calibrator/control” (priority 2005, published 2006)

Key:
[1] = test system: glycolysis in whole blood; experiment: Glucose stability of whole blood specimens with added D,L glyceraldehyde, YSI glucose concentration over weeks of storage; type: cell-based; settings: about 2° C. to about 10° C.
Method: FIG. 4 illustrates the YSI glucose concentration (mg/dL) of blood specimens containing EDTA at various final concentrations of a mixture of D,L glyceraldehydes at 0.0, 1.0, 5.0, 10.0 and 20.0 mM, obtained over 4 weeks of real time testing at about 2° C. to about 10° C.; FIG. 5 illustrates the YSI 2300 (reference analyzer) glucose concentration (mg/dL) of blood specimens treated at various concentrations of D,L glyceraldehyde over 3 weeks at about 2° C. to about 10° C., wherein the control is an untreated blood sample; In one method, a sample containing a cellular component, (i.e. RBCs, WBCs) is collected into a microfuge or vacuum tube, e.g. VACUTAINER®, (such as supplied by Becton, Dickinson and Company, Franklin Lakes, N.J.). The initial concentration of glucose in the sample can be […]. The vacuum tube may contain any appropriate anticoagulant agent known to one of ordinary skill, including oxalate, EDTA, citrate, heparin or combination thereof, to form a suspension. If used, the anticoagulant may be added together simultaneously, or sequentially, to the sample. The resulting suspension is incubated at about 2° C. to about 30° C. and allowed to undergo glycolysis until the glucose level is less than about 20 mg/dL. […]

red blood cells = experiment: RBC treatment with glyceraldehyde and subsequent removal; glucose recovery of RBCs recombined with plasma and glucose; type: cell-based, human; settings: RBCs treated with 20, 35, and 50 mM for 72 hours at 2 to 10° C., washed, after 34 days, FIG. 6
Method: FIG. 6 illustrates the YSI 2300 (reference analyzer) glucose concentration (mg/dL) of blood specimens at various concentrations of D,L glyceraldehyde respectively over 4 weeks at about 2° C. to about 10° C., wherein the control is untreated blood sample. Red blood cells were treated, washed and recombined with plasma and glucose. RBC Treatment w Glyceraldehyde & Subsequent Removal • 1) Employ fresh whole blood collected in standard anticoagulant (i.e. EDTA, heparin, sodium citrate) from a healthy adult population. Alternative blood sources may include bovine, avian, porcine, equine, goat, or alligator. • 2) Allow sufficient time for the natural enzymatic breakdown of glucose to occur (i.e. glycolysis). Deplete glucose concentration to less than about 20 mg/dl. Preferred storage at 2°-30°C. • 3) Separate RBC cellular component from plasma fraction via gravity settling and or centrifugation. If desired, the removed plasma fraction may be retained for reintroduction. • 4) Wash RBC cellular component with isotonic phosphate buffered saline solution (3×). Exchange diluent via centrifugation is preferred (15 minutes @ 1500 rpm (650× g). • 5) Adjust RBC concentration to approximately 4.0×10^6/mm^3±0.25×10^6/mm^3. […]

[2] = test system: glycolysis in whole blood; settings: final concentration about 0.9 to 20 mM; testing within 16 hours; cited from earlier work

Question: With O=CC(O)CO (racemic) [D,L glyceraldehyde, 2,3-dihydroxypropanal] as the compound, how does the “loss of YSI glucose concentration” value ([1]; 20.0 mM D,L glyceraldehyde in EDTA blood, at 4 weeks, FIG. 4) read?
Answer: The value was “less than 10%”.

Question: And the “loss of YSI glucose concentration” value ([1]; 30.0 mM D,L glyceraldehyde in EDTA blood, glucose burned down then added back, at 3 weeks, FIG. 5)?
Answer: Its value is “less than 3.5%”.

Question: What about the “loss in glucose recovery” value (red blood cells) of the same compound?
Answer: Its value is < 5%.

Question: What about the “glucose loss of stabilized whole blood sample” value [2] of the same compound?
Answer: Its value is “negligible glucose loss”.
